According to patent US20160168126A1, “CHEMICAL COMPOUNDS” (SYNGENTA LIMITED, priority 2013, published 2016):

System: a variety of test species
Assay: Post-emergence herbicidal activity (glasshouse, sprayed 8 days after sowing, evaluated after 13 days)
Assay type: in vivo
Conditions: scale 0-5
Method: Seeds of a variety of test species were sown in standard soil in pots. After 8 days cultivation (post-emergence) under controlled conditions in a glasshouse (at 24/16° C., day/night; 14 hours light; 65% humidity), the plants were sprayed with an aqueous spray solution derived from the formulation of the technical active ingredient in acetone/water (50:50) solution containing 0.5% Tween 20 (polyoxyethelyene sorbitan monolaurate, CAS RN 9005-64-5). The test plants were then grown in a glasshouse under controlled conditions (at 24/16° C., day/night; 14 hours light; 65% humidity) and watered twice daily. After 13 days, the test was evaluated (5=total damage to plant; 0=no damage to plant).

How did the “Post-emergence herbicidal damage score, ABUTH (Abutilon theophrasti)” value (1000 g/ha) turn out when `CCC(C)(OC)c1cc(N2C(=O)C(C)=C(Cl)C2O)nn1C` (mixture of isomers) [Compound B13] was run?
The value was 5.

And the “Post-emergence herbicidal damage score, ALOMY (Alopecurus myosuroides)” value (1000 g/ha)?
Its value is 3.

What about the “Post-emergence herbicidal damage score, AMARE (Amaranthus retroflexus)” value (1000 g/ha) of the same compound?
Its value is 3.

What about the “Post-emergence herbicidal damage score, ECHCG (Echinochloa crus-galli)” value (1000 g/ha) of the same compound?
The value was 2.

And the “Post-emergence herbicidal damage score, SETFA (Setaria faberi)” value (1000 g/ha)?
The value was 4.

What about the “Post-emergence herbicidal damage score, ZEAMX (Zea mays)” value (1000 g/ha) of the same compound?
Its value is 0.

`CCOC(C)(CC)c1cc(N2C(=O)C(C)=C(Cl)C2O)nn1C` (mixture of isomers) [Compound B14] was tested. Which “Post-emergence herbicidal damage score, ABUTH (Abutilon theophrasti)” value (1000 g/ha) did it give?
Its value is 5.

What about the “Post-emergence herbicidal damage score, ALOMY (Alopecurus myosuroides)” value (1000 g/ha) of the same compound?
The value was 3.

And the “Post-emergence herbicidal damage score, AMARE (Amaranthus retroflexus)” value (1000 g/ha)?
Its value is 4.

What about the “Post-emergence herbicidal damage score, ECHCG (Echinochloa crus-galli)” value (1000 g/ha) of the same compound?
Its value is 4.

And the “Post-emergence herbicidal damage score, SETFA (Setaria faberi)” value (1000 g/ha)?
The value was 4.

What about the “Post-emergence herbicidal damage score, ZEAMX (Zea mays)” value (1000 g/ha) of the same compound?
The value was 1.

Which “Post-emergence herbicidal damage score, ABUTH (Abutilon theophrasti)” value (1000 g/ha) does the source give for `CCC(C)c1cc(N2C(=O)C(C)=C(Cl)C2O)nn1C` (mixture of isomers) [Compound B15] here?
The value was 5.

What about the “Post-emergence herbicidal damage score, ALOMY (Alopecurus myosuroides)” value (1000 g/ha) of the same compound?
The value was 4.

And the “Post-emergence herbicidal damage score, AMARE (Amaranthus retroflexus)” value (1000 g/ha)?
The value was 5.

What about the “Post-emergence herbicidal damage score, ECHCG (Echinochloa crus-galli)” value (1000 g/ha) of the same compound?
The value was 5.

What about the “Post-emergence herbicidal damage score, SETFA (Setaria faberi)” value (1000 g/ha) of the same compound?
Its value is 5.

And the “Post-emergence herbicidal damage score, ZEAMX (Zea mays)” value (1000 g/ha)?
The value was 2.

Which “Post-emergence herbicidal damage score, ABUTH (Abutilon theophrasti)” value (1000 g/ha) does the source give for `CCOC(c1cc(N2C(=O)C(C)=C(Cl)C2O)nn1C)C(C)(C)C` (mixture of isomers) [Compound B16] here?
Its value is 0.

And the “Post-emergence herbicidal damage score, ALOMY (Alopecurus myosuroides)” value (1000 g/ha)?
The value was 0.

And the “Post-emergence herbicidal damage score, AMARE (Amaranthus retroflexus)” value (1000 g/ha)?
Its value is 0.

What about the “Post-emergence herbicidal damage score, ECHCG (Echinochloa crus-galli)” value (1000 g/ha) of the same compound?
The value was 0.

And the “Post-emergence herbicidal damage score, SETFA (Setaria faberi)” value (1000 g/ha)?
Its value is 0.

And the “Post-emergence herbicidal damage score, ZEAMX (Zea mays)” value (1000 g/ha)?
The value was 0.

How did the “Post-emergence herbicidal damage score, ABUTH (Abutilon theophrasti)” value (1000 g/ha) turn out when `CC1=C(Cl)C(O)N(c2cc(C(F)C(C)(C)C)n(C)n2)C1=O` (mixture of isomers) [Compound B19] was run?
Its value is 4.

What about the “Post-emergence herbicidal damage score, ALOMY (Alopecurus myosuroides)” value (1000 g/ha) of the same compound?
The value was 2.

And the “Post-emergence herbicidal damage score, AMARE (Amaranthus retroflexus)” value (1000 g/ha)?
Its value is 4.

And the “Post-emergence herbicidal damage score, ECHCG (Echinochloa crus-galli)” value (1000 g/ha)?
The value was 3.

What about the “Post-emergence herbicidal damage score, SETFA (Setaria faberi)” value (1000 g/ha) of the same compound?
Its value is 4.

What about the “Post-emergence herbicidal damage score, ZEAMX (Zea mays)” value (1000 g/ha) of the same compound?
The value was 0.

`CC1=C(Cl)C(O)N(c2cc(C(C)C(F)(F)F)n(C)n2)C1=O` (mixture of isomers) [Compound B21] was tested. Which “Post-emergence herbicidal damage score, ABUTH (Abutilon theophrasti)” value (1000 g/ha) did it give?
The value was 4.

What about the “Post-emergence herbicidal damage score, ALOMY (Alopecurus myosuroides)” value (1000 g/ha) of the same compound?
The value was 5.

And the “Post-emergence herbicidal damage score, AMARE (Amaranthus retroflexus)” value (1000 g/ha)?
Its value is 5.

And the “Post-emergence herbicidal damage score, ECHCG (Echinochloa crus-galli)” value (1000 g/ha)?
Its value is 5.

And the “Post-emergence herbicidal damage score, SETFA (Setaria faberi)” value (1000 g/ha)?
The value was 5.

And the “Post-emergence herbicidal damage score, ZEAMX (Zea mays)” value (1000 g/ha)?
Its value is 1.

Which “Post-emergence herbicidal damage score, ABUTH (Abutilon theophrasti)” value (1000 g/ha) does the source give for `CC1=C(Cl)C(O)N(c2cc(C(C)(F)C(C)(C)C)n(C)n2)C1=O` (mixture of isomers) [Compound B22] here?
Its value is 1.

What about the “Post-emergence herbicidal damage score, ALOMY (Alopecurus myosuroides)” value (1000 g/ha) of the same compound?
The value was 1.

What about the “Post-emergence herbicidal damage score, AMARE (Amaranthus retroflexus)” value (1000 g/ha) of the same compound?
The value was 0.

And the “Post-emergence herbicidal damage score, ECHCG (Echinochloa crus-galli)” value (1000 g/ha)?
The value was 2.

And the “Post-emergence herbicidal damage score, SETFA (Setaria faberi)” value (1000 g/ha)?
Its value is 3.

And the “Post-emergence herbicidal damage score, ZEAMX (Zea mays)” value (1000 g/ha)?
The value was 1.

What does the source list for `CC1=C(Cl)C(O)N(c2cc3n(n2)CCC3C)C1=O` (mixture of isomers) [Compound G1]?
Post-emergence herbicidal damage score, ABUTH (Abutilon theophrasti) (1000 g/ha): 5; Post-emergence herbicidal damage score, ALOMY (Alopecurus myosuroides) (1000 g/ha): 4; Post-emergence herbicidal damage score, AMARE (Amaranthus retroflexus) (1000 g/ha): 5; Post-emergence herbicidal damage score, ECHCG (Echinochloa crus-galli) (1000 g/ha): 5; Post-emergence herbicidal damage score, SETFA (Setaria faberi) (1000 g/ha): 4; Post-emergence herbicidal damage score, ZEAMX (Zea mays) (1000 g/ha): 2

How did the “Post-emergence herbicidal damage score, ABUTH (Abutilon theophrasti)” value (1000 g/ha) turn out when `CCC1CCn2nc(N3C(=O)C(C)=C(Cl)C3O)cc21` (mixture of isomers) [Compound G3] was run?
Its value is 5.

And the “Post-emergence herbicidal damage score, ALOMY (Alopecurus myosuroides)” value (1000 g/ha)?
Its value is 4.

What about the “Post-emergence herbicidal damage score, AMARE (Amaranthus retroflexus)” value (1000 g/ha) of the same compound?
The value was 5.

What about the “Post-emergence herbicidal damage score, ECHCG (Echinochloa crus-galli)” value (1000 g/ha) of the same compound?
The value was 4.

What about the “Post-emergence herbicidal damage score, SETFA (Setaria faberi)” value (1000 g/ha) of the same compound?
Its value is 5.

And the “Post-emergence herbicidal damage score, ZEAMX (Zea mays)” value (1000 g/ha)?
The value was 2.

With `CCC1CCCn2nc(N3C(=O)C(C)=C(Cl)C3O)cc21` (mixture of isomers) [Compound G5] as the compound, how does the “Post-emergence herbicidal damage score, ABUTH (Abutilon theophrasti)” value (1000 g/ha) read?
The value was 5.

And the “Post-emergence herbicidal damage score, ALOMY (Alopecurus myosuroides)” value (1000 g/ha)?
The value was 4.

And the “Post-emergence herbicidal damage score, AMARE (Amaranthus retroflexus)” value (1000 g/ha)?
The value was 5.

And the “Post-emergence herbicidal damage score, ECHCG (Echinochloa crus-galli)” value (1000 g/ha)?
The value was 4.

And the “Post-emergence herbicidal damage score, SETFA (Setaria faberi)” value (1000 g/ha)?
Its value is 4.

And the “Post-emergence herbicidal damage score, ZEAMX (Zea mays)” value (1000 g/ha)?
The value was 0.

How did the “Post-emergence herbicidal damage score, ABUTH (Abutilon theophrasti)” value (250 g/ha) turn out when `CC1=C(Cl)C(O)N(c2cc(C(C)(C)C)[nH]n2)C1=O` (stereo not drawn) [Compound A1] was run?
The value was 5.

And the “Post-emergence herbicidal damage score, ALOMY (Alopecurus myosuroides)” value (250 g/ha)?
Its value is 4.

What about the “Post-emergence herbicidal damage score, AMARE (Amaranthus retroflexus)” value (250 g/ha) of the same compound?
The value was 2.

What about the “Post-emergence herbicidal damage score, ECHCG (Echinochloa crus-galli)” value (250 g/ha) of the same compound?
The value was 5.

And the “Post-emergence herbicidal damage score, SETFA (Setaria faberi)” value (250 g/ha)?
Its value is 4.

What about the “Post-emergence herbicidal damage score, ZEAMX (Zea mays)” value (250 g/ha) of the same compound?
The value was 0.
